According to US5484780A, “Angiotensin II antagonists” (Eli Lilly and Company, priority 1994, dated 1996):
Several values for one entry are separate records, joined by “and”; a condition that tells them apart may be missing. Equal entries are not always repeated.

Target: T1, angiotensin-induced vasoconstriction (rabbit aorta) (Oryctolagus cuniculus, UniProt P34976)
T1 construct: The thoracic aortas were removed and cleaned of excess fat and connective tissue; from tissue; host or cells: thoracic aorta rings of New Zealand white rabbits (animals from Hazelton)
T1 sequence (P34976 1-359): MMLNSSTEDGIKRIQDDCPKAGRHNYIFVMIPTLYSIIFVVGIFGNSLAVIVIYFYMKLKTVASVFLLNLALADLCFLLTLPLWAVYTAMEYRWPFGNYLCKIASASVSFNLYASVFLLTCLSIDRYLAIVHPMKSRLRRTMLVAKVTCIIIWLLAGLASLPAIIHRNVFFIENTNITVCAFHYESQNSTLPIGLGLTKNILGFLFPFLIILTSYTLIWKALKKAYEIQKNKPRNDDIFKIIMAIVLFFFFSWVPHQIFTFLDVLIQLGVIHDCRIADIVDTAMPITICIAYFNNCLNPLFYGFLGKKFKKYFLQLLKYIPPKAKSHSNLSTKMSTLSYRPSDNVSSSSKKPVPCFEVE
Assay: Rabbit Aorta Test System: antagonism of angiotensin II contraction of aortic rings
Parameters: species or system New Zealand white rabbits
Settings: contraction to AII 10^-10 to 10^-7 M, 30 minutes incubation with compound; pA2 = -log KB
Protocol: As previously discussed, the compounds of Formula I are potent effective antagonists of angiotensin II. The ability of representative compounds of Formula I to block angiotensin II receptor binding was determined using the adrenal glomerulosa assay. The ability to antagonize angiotensin-induced vasoconstriction was evaluated in the rabbit aorta test system.
New Zealand white rabbits (Hazelton, 2-3 kg) were sacrificed by cervical dislocation. The thoracic aortas were removed and cleaned of excess fat and connective tissue. Rings of tissue (3 mm wide) were mounted in 10 ml tissue baths between 2 L-shaped stainless steel hooks. The lower hook was attached to a stationary rod. The upper hook was attached to a force displacement transducer (Grass model FT.03). The bath chambers were maintained at 37° C., aerated with 95% 02 /5% C02, and contained physiological solution of the following composition (mM): NaCl, 117; glucose, 5.6; NaH2 PO4, 1.0; MgS04, 0.7; KCl, 5.2; CaCl2, 1.8; NaHCO3, 26; and phentolamine HCl, 0.003.
Rings were equilibrated for 1 hour with 2 g of tension. During the equilibration period, the tissues were washed by overflow every 15 minutes. Rings were then exposed to 10^-8 M angiotensin II (AII) and were allowed to contract until a steady state was reached. Tissues were then washed every 15 minutes for 1 hour. This was repeated every hour until the AII response stabilized. A cumulative concentration response curve to AII (10^-10 to 10^-7 M) was then obtained. At the conclusion of the concentration response curve, tissues were washed every 2 minutes until baseline tension was reached, then every 15 minutes for 30 minutes. Compounds were added in a volume of 10 μl DMSO and allowed to incubate for 30 minutes before repeating the concentration response curve to AII. Contractions to AII were expressed as a percent of the maximum contraction obtained in the control curve (the first AII concentration response curve). EC50 's (concentration that contracted the tissues to 1/2 the control maximum) for each curve were calculated using a 4 parameter logistics model (NonLin, SAS Institute). Potency data for each compound tested are expressed as the pA2 (defined as-log KB, where KB =[molar concentration of antagonist]/[(EC50 AII with antagonist/EC50 AII without antagonist)-1]).

Row | Kb | Rabbit Aorta (pA2) | Structure (SMILES)
1 | 3.16 nM |  | CCCCCCC(C(=O)N1C[C@@H](Oc2ccccc2)C[C@H]1C(=O)O)n1cnc(NC(=O)c2cccc(O)c2C(=O)O)c1 (single isomer, unassigned) [Example 20, 1-[1-oxo-2-[4-(2-carboxy-3-hydroxybenzoyl)amino-1H-imidazol-1-yl]octyl]-4-cis-phenoxy-L-Proline]
2 | 63.1 nM and 501 nM |  | CCCCCCC(C(=O)N1CCC[C@H]1C(=O)O)n1cnc(NC(=O)c2ccccc2S(=O)(=O)O)c1 (single isomer, unassigned) [Example 21, 1-[1-Oxo-2-[4-(2-sulfobenzoyl)amino-1H-imidazol-1-yl]octyl]-L-proline]
3 |  | 6.3 | CCCCCCC(C(=O)N1CCNC1=S)n1cnc(NC(=O)c2ccccc2S(=O)(=O)O)c1 (centres unmarked) [Example 6, 2-[[[1-[1-[(2-thioxo-1-imidazolidinyl)carbonyl]-heptyl]-1H-imidazol-4-yl]amino]carbonyl]benzenesulfonic acid]
4 | 50.1 nM |  | O=C(Nc1cn(C(CCCCC(F)(F)F)C(=O)N2C[C@@H](Oc3ccccc3)C[C@H]2C(=O)O)cn1)c1ccccc1S(=O)(=O)O (stereo partly drawn) [Example 16, 1-[1-Oxo-2-[4-(2-sulfobenzoyl)amino-1H-imidazol-1-yl]-7,7,7-trifluoroheptyl]-4-cis-phenoxy-L-proline]
5 | 15.8 nM |  | CCCCCCC(C(=O)N1C[C@@H](Oc2cccnc2)C[C@H]1C(=O)O)n1cnc(NC(=O)c2ccccc2S(=O)(=O)O)c1 (stereo partly drawn) [Example 17, 1-[1-Oxo-2-[4-(2-sulfobenzoyl)amino-1H-imidazol-1-yl]octyl]4-cis-(3-pyridyloxy)-L-proline]
6 | 0.398 nM |  | CCCCCC[C@H](C(=O)N1C[C@@H](Oc2ccc(C)cc2)C[C@H]1C(=O)O)n1cnc(NC(=O)c2ccccc2S(=O)(=O)O)c1 [Example 22]
7 | 1.58 nM |  | CCCCCC[C@H](C(=O)N1C[C@@H](Oc2ccc(CC)cc2)C[C@H]1C(=O)O)n1cnc(NC(=O)c2ccccc2S(=O)(=O)O)c1 [Example 23]
8 | 25.1 nM |  | CCCCCC[C@H](C(=O)N1C[C@@H](Oc2ccc(C(C)C)cc2)C[C@H]1C(=O)O)n1cnc(NC(=O)c2ccccc2S(=O)(=O)O)c1 [Example 24]
9 | 126 nM |  | CCCCCC[C@H](C(=O)N1C[C@@H](Oc2ccc(C(C)(C)C)cc2)C[C@H]1C(=O)O)n1cnc(NC(=O)c2ccccc2S(=O)(=O)O)c1 [Example 25]
10 | 0.631 nM |  | CCCCCC[C@H](C(=O)N1C[C@@H](Oc2ccc(SC)cc2)C[C@H]1C(=O)O)n1cnc(NC(=O)c2ccccc2S(=O)(=O)O)c1 [Example 30]
11 | 1.26 nM |  | CCCCCC[C@H](C(=O)N1C[C@@H](Oc2ccc(S(C)(=O)=O)cc2)C[C@H]1C(=O)O)n1cnc(NC(=O)c2ccccc2S(=O)(=O)O)c1 [Example 32]
12 | 2 nM |  | CCCCCC[C@H](C(=O)N1C[C@@H](Oc2ccc(CO)cc2)C[C@H]1C(=O)O)n1cnc(NC(=O)c2ccccc2S(=O)(=O)O)c1 [Example 35]
13 | 1.26 nM |  | CCCCCC[C@H](C(=O)N1C[C@@H](Oc2ccc(-n3ccnc3)cc2)C[C@H]1C(=O)O)n1cnc(NC(=O)c2ccccc2S(=O)(=O)O)c1 [Example 38]
14 | 0.158 nM |  | CCCCCC[C@H](C(=O)N1C[C@@H](Oc2ccc(-c3nc(C(=O)O)co3)cc2)C[C@H]1C(=O)O)n1cnc(NC(=O)c2ccccc2S(=O)(=O)O)c1 [Example 41]
15 | 0.251 nM |  | CCCCCC[C@H](C(=O)N1C[C@@H](Oc2ccc(-n3cncn3)cc2)C[C@H]1C(=O)O)n1cnc(NC(=O)c2ccccc2S(=O)(=O)O)c1 [Example 45]
16 | 2 nM |  | CCCCCC[C@H](C(=O)N1C[C@@H](Oc2ccc(CC(=O)N(C)CC(=O)O)cc2)C[C@H]1C(=O)O)n1cnc(NC(=O)c2ccccc2S(=O)(=O)O)c1 [Example 46]

More lines, now with the values behind:

Row | Structure (SMILES) | Kb | Rabbit Aorta (pA2)
17 | CCCCC(C(=O)N1C[C@@H](Oc2ccccc2)C[C@H]1C(=O)O)n1cnc(NC(=O)c2ccccc2S(=O)(=O)O)c1 (single isomer, unassigned) [Example 14, 1-[1-oxo-2-[4-(2-sulfobenzoyl)amino-1H-imidazol-1-yl]hexyl]-4-cis-phenoxy-L-proline] | 31.6 nM and 126 nM | 
18 | CCCCCCC(C(=O)N1C[C@@H](Oc2ccc(OC)cc2)C[C@H]1C(=O)O)n1cnc(NC(=O)c2ccccc2S(=O)(=O)O)c1 (single isomer, unassigned) [Example 18] | 0.2 nM | 
19 | CCCCCCC(C(=O)N1C[C@@H](Oc2ccc(O)cc2)C[C@H]1C(=O)O)n1cnc(NC(=O)c2ccccc2S(=O)(=O)O)c1 (single isomer, unassigned) [Example 19] | 1.26 nM | 
20 | CCCCCCC(C(=O)N1CCC[C@@H]1C(=O)O)n1cnc(NC(=O)c2ccccc2S(=O)(=O)O)c1 (some centres unmarked) [Example 11] | 200 nM and 251 nM | 
21 | CCCCCC(C(=O)N1C[C@@H](Oc2ccccc2)C[C@H]1C(=O)O)n1cnc(NC(=O)c2ccccc2S(=O)(=O)O)c1 (stereo partly drawn) [Example 13, 1-[1-oxo-2-[4-(2-sulfobenzoyl)amino-1H-imidazol-1-yl]heptyl]-4-cis-phenoxy-L-proline] | 63.1 nM and 126 nM | 
22 | CCCCCC[C@H](C(=O)N1C[C@@H](Oc2ccc(C3CCCC3)cc2)C[C@H]1C(=O)O)n1cnc(NC(=O)c2ccccc2S(=O)(=O)O)c1 [Example 26] | 2.51 nM | 
23 | CCCCCC[C@H](C(=O)N1C[C@@H](Oc2ccc(-c3ccccc3)cc2)C[C@H]1C(=O)O)n1cnc(NC(=O)c2ccccc2S(=O)(=O)O)c1 [Example 27] | 10 nM | 
24 | CCCCCC[C@H](C(=O)N1C[C@@H](Oc2ccc(F)cc2)C[C@H]1C(=O)O)n1cnc(NC(=O)c2ccccc2S(=O)(=O)O)c1 [Example 28] |  | 8.7
25 | CCCCCC[C@H](C(=O)N1C[C@@H](Oc2ccc(C(F)(F)F)cc2)C[C@H]1C(=O)O)n1cnc(NC(=O)c2ccccc2S(=O)(=O)O)c1 [Example 29] |  | 7.5
26 | CCCCCC[C@H](C(=O)N1C[C@@H](Oc2ccc([S+](C)[O-])cc2)C[C@H]1C(=O)O)n1cnc(NC(=O)c2ccccc2S(=O)(=O)O)c1 (some centres unmarked) [Example 31] |  | 8.9
27 | CCCCCC[C@H](C(=O)N1C[C@@H](Oc2ccc(C(=O)O)cc2)C[C@H]1C(=O)O)n1cnc(NC(=O)c2ccccc2S(=O)(=O)O)c1 [Example 33] | 1 nM | 
28 | CCCCCC[C@H](C(=O)N1C[C@@H](Oc2ccc(C(N)=O)cc2)C[C@H]1C(=O)O)n1cnc(NC(=O)c2ccccc2S(=O)(=O)O)c1 [Example 34] | 3.16 nM | 
29 | CCCCCC[C@H](C(=O)N1C[C@@H](Oc2ccc(CC(=O)O)cc2)C[C@H]1C(=O)O)n1cnc(NC(=O)c2ccccc2S(=O)(=O)O)c1 [Example 36] | 0.398 nM | 
30 | CCCCCC[C@H](C(=O)N1C[C@@H](Oc2ccc(CCC(=O)O)cc2)C[C@H]1C(=O)O)n1cnc(NC(=O)c2ccccc2S(=O)(=O)O)c1 [Example 37] | 0.398 nM | 
31 | CCCCCC[C@H](C(=O)N1C[C@@H](Oc2ccc(S(=O)(=O)N3CCCC3)cc2)C[C@H]1C(=O)O)n1cnc(NC(=O)c2ccccc2S(=O)(=O)O)c1 [Example 39] | 1 nM | 
32 | CCCCCC[C@H](C(=O)N1C[C@@H](Oc2ccc(S(=O)(=O)NC)cc2)C[C@H]1C(=O)O)n1cnc(NC(=O)c2ccccc2S(=O)(=O)O)c1 [Example 40] | 0.501 nM | 
33 | CCCCCC[C@H](C(=O)N1C[C@@H](Oc2ccc(CCP(=O)(O)O)cc2)C[C@H]1C(=O)O)n1cnc(NC(=O)c2ccccc2S(=O)(=O)O)c1 [Example 42] | 1.26 nM | 
34 | CCCCCC[C@H](C(=O)N1C[C@@H](Oc2ccc(OP(=O)(O)O)cc2)C[C@H]1C(=O)O)n1cnc(NC(=O)c2ccccc2S(=O)(=O)O)c1 [Example 43] | 0.794 nM | 
35 | CCCCCC[C@H](C(=O)N1C[C@@H](Oc2ccc(P(=O)(O)O)cc2)C[C@H]1C(=O)O)n1cnc(NC(=O)c2ccccc2S(=O)(=O)O)c1 [Example 44] | 5.01 nM | 
36 | CCCCCC[C@H](C(=O)N1C[C@@H](Oc2ccc(CC(=O)N3CCC[C@H]3C(=O)O)cc2)C[C@H]1C(=O)O)n1cnc(NC(=O)c2ccccc2S(=O)(=O)O)c1 [Example 47] | 1 nM | 
37 | CCCCCC[C@H](C(=O)N1C[C@@H](Oc2ccc(OCC)cc2)C[C@H]1C(=O)O)n1cnc(NC(=O)c2ccccc2S(=O)(=O)O)c1 [Example 48] | 0.631 nM | 
38 | CCCCCC[C@H](C(=O)N1C[C@@H](Oc2ccc(OC(C)C)cc2)C[C@H]1C(=O)O)n1cnc(NC(=O)c2ccccc2S(=O)(=O)O)c1 [Example 49] | 2.51 nM | 
